{"source": "patent US20070059785A1", "about": "“Biomarkers in cancer” (SMITHKLINE BEECHAM CORPORATION, priority 2003, published 2007)", "key": {"TGFα": {"system": "TGFα", "assay": "Clinical tumor biopsies, TGFα by IHC", "conditions": "patient 425, inflammatory breast cancer, 1200 mg/d ditosylate salt, day 21 (day 0: 32)", "quoted_text": "(§6) Erk1/2 (1:1200), erbB3 (1:10), heregulin (1:25), and TGFα (1:20) were also immunostained using the BenchMark™ with I-VIEW detection chemistry.\n(§7) All subjects provided written informed consent.\n“TGFα” refers to Transforming Growth Factor alpha as measured by immunohistochemistry and reported in OD;"}, "[1]": {"assay": "Plasma concentration in patients", "format": "in vivo, human", "conditions": "oral once a day"}, "erbB2 [2]": {"target": "T1, erbB2 (Homo sapiens, UniProt P04626)", "T1 sequence (P04626 23-1255)": "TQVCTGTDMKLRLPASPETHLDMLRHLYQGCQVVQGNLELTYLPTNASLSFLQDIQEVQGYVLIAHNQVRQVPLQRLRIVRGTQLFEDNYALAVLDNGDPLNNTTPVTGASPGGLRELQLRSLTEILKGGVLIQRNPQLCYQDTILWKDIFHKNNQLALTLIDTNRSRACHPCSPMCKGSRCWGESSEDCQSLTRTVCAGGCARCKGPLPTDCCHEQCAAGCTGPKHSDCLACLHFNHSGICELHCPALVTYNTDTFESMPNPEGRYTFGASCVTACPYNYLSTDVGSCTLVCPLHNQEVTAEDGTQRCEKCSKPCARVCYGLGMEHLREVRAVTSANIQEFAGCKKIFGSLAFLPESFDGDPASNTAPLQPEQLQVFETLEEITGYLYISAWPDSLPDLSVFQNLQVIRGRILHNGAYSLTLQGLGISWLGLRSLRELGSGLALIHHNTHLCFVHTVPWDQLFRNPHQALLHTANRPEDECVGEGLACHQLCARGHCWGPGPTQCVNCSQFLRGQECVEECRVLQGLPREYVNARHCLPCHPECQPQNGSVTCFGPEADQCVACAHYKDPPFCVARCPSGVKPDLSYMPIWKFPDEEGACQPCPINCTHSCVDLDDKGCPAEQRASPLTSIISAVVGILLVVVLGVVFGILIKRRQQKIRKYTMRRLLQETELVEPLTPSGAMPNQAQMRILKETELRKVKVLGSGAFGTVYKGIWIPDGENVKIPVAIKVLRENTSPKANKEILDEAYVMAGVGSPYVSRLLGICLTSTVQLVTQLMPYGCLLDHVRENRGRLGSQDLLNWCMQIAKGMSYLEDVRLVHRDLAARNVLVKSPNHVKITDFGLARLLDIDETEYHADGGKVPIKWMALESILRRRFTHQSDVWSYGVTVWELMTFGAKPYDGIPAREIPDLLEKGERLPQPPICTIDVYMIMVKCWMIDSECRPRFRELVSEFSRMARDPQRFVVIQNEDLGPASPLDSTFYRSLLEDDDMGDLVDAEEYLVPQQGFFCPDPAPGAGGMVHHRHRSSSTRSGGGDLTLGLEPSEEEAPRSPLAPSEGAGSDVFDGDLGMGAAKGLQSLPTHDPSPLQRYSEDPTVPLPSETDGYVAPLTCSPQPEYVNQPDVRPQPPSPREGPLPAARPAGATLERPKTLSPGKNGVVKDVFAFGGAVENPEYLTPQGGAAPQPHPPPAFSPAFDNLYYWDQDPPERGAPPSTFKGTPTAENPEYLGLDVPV", "assay": "Clinical tumor biopsies, erbB2 p-tyr by IHC", "conditions": "patient 361, 1200 mg/day, Day 21, data not shown"}, "Erk1/2 [3]": {"system": "Erk1/2", "assay": "BT474 tumor xenograft, p-Erk1/2 and total Erk1/2 by Western blot", "format": "in vivo, C.B-17 SCID mice", "protocol": "(§1) The tumor implant was removed after the final treatment dose. Activated receptor (p-Tyr/ErbB-2) was assessed by IP Western blot and total ErbB-2 steady state protein (ErbB-2), total Erk1/2 and activated Erk1/2 (p-Erk1/2) were assessed by Western blot loading equal amounts of protein from tumor biopsies.\nCell extracts were prepared by homogenization as described for HN5 xenografts.\nas §1, with “BT474” for “The”, “xenografts (subcutaneous) were established as described in Materials and Methods. […] Controls were treated with vehicle alone. […]” for “implant was removed after the final treatment dose.”"}, "pAKT [4]": {"system": "pAKT", "assay": "Confocal microscopy of AU-565 cells exposed to epigen", "format": "cell-based, human", "conditions": "epigen and GW572016, confocal microscopy, results not shown", "from_the_text": "In response to NDF (Neu Differentiating Factor or Heregulin), these cells divide and multiply. AU565 cells were stained with antibodies to show total ERK, or stained with antibodies to show phosphorylated ERK (p-Erk)."}, "erbB2 [5]": {"target": "T1, erbB2", "assay": "IP Western blot of p-Tyr/erbB2 in BT474 cells, with or without EGF", "format": "cell-based", "parameters": "endogenous in cells", "conditions": "BT474, 1 μM, 24 h serum-free; not reversed by EGF", "protocol": "The erbB2 overexpressing human breast adenocarcinoma cell line, BT474, was obtained from the American Type Culture Collection (Rockville, M, USA). […] The EGFR overexpressing LICR-LON-HN5 head and neck carcinoma cell line, HN5, was kindly provided by Helmout Modjtahedi at the Institute of Cancer Research, Surrey, U.K.\nCell cultures were maintained in a humidified atmosphere of 5% CO2 at 37° C.\n(§2) Protein concentrations were determined using a modification of the Bradford method (Bio-Rad Laboratory).\n(§3) For IP Western blots, equivalent amounts of protein were precleared with Protein G Plus/Protein A agarose overnight at 4° C. Precleared lysates were then incubated overnight at 4° C. with specific antibodies. Immune complexes were precipitated with Protein G Plus/Protein A agarose beads, washed in RIPA buffer and then boiled in sample loading buffer. Steady state levels of total Erk1/2 and activated Erk1/2 (p-Erk) as well as total AKT protein and activated AKT (p-AKT) protein were assessed by Western blot. […] Proteins were transferred to Immobilon-P or nitrocellulose membranes. Efficiency and equal loading of proteins was evaluated by Ponceau S staining. Membranes were blocked for 1 hr in TBS (25 mM Tris-HCl, pH 7.4, 150 mM NaCl, 2.7 mM KCl) containing 4% (w/v) lowfat milk or 3% BSA (w/v). Membranes were then probed with specific antibodies recognizing target proteins. […]"}, "cyclin D1": {"system": "cyclin D1", "assay": "Clinical tumor biopsies, cyclin D1 by quantitative IHC", "quoted_text": "as §7\n“Cyclin D1” refers to total cyclin D1 present as measured by immunohistochemistry and reported by OD;"}, "HN5 cells": {"system": "HN5 cells", "assay": "Apoptosis and growth of HN5 cells", "format": "cell-based, human", "conditions": "data not shown"}, "Erk1/2 [6]": {"system": "Erk1/2", "assay": "Tumor xenografts, phospho-Erk1/2 and total Erk1/2 by quantitative IHC", "format": "in vivo, mice", "conditions": "data not shown", "from_the_text": "DAB (Dako) was used as the chromogen.\nInhibition of erbB2/EGFR p-tyr in turn led to the inhibition of downstream activated, phospho-Erk1/2."}, "Erk1/2 [7]": {"system": "Erk1/2", "assay": "Western blot of p-Erk1/2 in Hb4a cells", "format": "cell-based, human", "conditions": "5 μM, 72 h, not reversed by EGF", "protocol": "(§4) The EGFR overexpressing LICR-LON-HN5 head and neck carcinoma cell line, HN5, was kindly provided by Helmout Modjtahedi at the Institute of Cancer Research, Surrey, U.K.\nFor IP Western blots, equivalent amounts of protein were precleared with Protein G Plus/Protein A agarose overnight at 4° C. Precleared lysates were then incubated overnight at 4° C. with specific antibodies. Immune complexes were precipitated with Protein G Plus/Protein A agarose beads, washed in RIPA buffer and then boiled in sample loading buffer. Steady state levels of total Erk1/2 and activated Erk1/2 (p-Erk) as well as total AKT protein and activated AKT (p-AKT) protein were assessed by Western blot. […] Proteins were transferred to Immobilon-P or nitrocellulose membranes. Efficiency and equal loading of proteins was evaluated by Ponceau S staining. Membranes were blocked for 1 hr in TBS (25 mM Tris-HCl, pH 7.4, 150 mM NaCl, 2.7 mM KCl) containing 4% (w/v) lowfat milk or 3% BSA (w/v). Membranes were then probed with specific antibodies recognizing target proteins. Proteins were visualized with the SUPERSIGNAL® West Femto Maximum sensitivity substrate kit (Pierce).\n(§5) Steady state levels of activated erbB2 and EGFR (p-Tyr/ErbB2 and p-Tyr/EGFR); total erbB2 and EGFR; activated Erk1/2 (p-Erk1/2) and total Erk1/2 were assessed by either IP Western or Western blot."}, "Heregulin": {"system": "Heregulin", "assay": "Clinical tumor biopsies, heregulin by IHC", "conditions": "patient 425, inflammatory breast cancer, 1200 mg/d ditosylate salt, day 21 (day 0: 5)", "method": "as §6\n“Heregulin”, a ligand that stimulates erbB3 (HER3) and HER4, was measured by immunohistochemistry and reported in OD."}, "pAKT [8]": {"system": "pAKT", "assay": "Clinical tumor biopsies, p-AKT by quantitative IHC", "quoted_text": "“pAKT” refers to phosphorylated AKT as measured by immunohistochemistry and reported in OD;"}, "erbB2 [9]": {"target": "T1, erbB2", "assay": "IP Western/Western blot of p-Tyr/erbB2 and total erbB2 in Hb4a cells", "format": "cell-based", "parameters": "endogenous in cells; host or cells: Hb4a", "conditions": "5 μM, 72 h, not reversed by EGF", "protocol": "as §4, §2, §3, §5"}, "erbB2 [10]": {"target": "T1, erbB2", "assay": "Clinical tumor biopsies, total erbB2 by IHC", "quoted_text": "as §7\n“erbB2” refers to total erbB2 as measured by immunohistochemistry and reported in OD;"}, "p-Erk1/2": {"system": "p-Erk1/2", "assay": "Clinical tumor biopsies, p-ERK index by quantitative IHC", "conditions": "patient 364, head and neck cancer, 1600 mg/day, Day 21", "method": "To quantify changes in Erk1/2 activation state, a p-Erk index was established for each biopsy. The p-Erk index was the product of the percentage of cells staining positive for p-Erk1/2 in the tissue section and the OD value for p-Erk1/2 immunoreactivity. Investigators preparing and analyzing tissue sections were blinded to both patient tumor type and response to therapy.\n“pERK index” is calculated by multiplying the percentage of cells staining positive for p-Erk and the optical density (OD) score, ×100;"}}, "note": "Entries after “also recorded” stand apart in the source; their conditions may differ.", "data": [{"smiles": "CS(=O)(=O)CCNCc1ccc(-c2ccc3ncnc(Nc4ccc(OCc5cccc(F)c5)c(Cl)c4)c3c2)o1", "note": "[GW572016, N-{3-Chloro-4-[(3-fluorobenzyl)oxy]phenyl}-6-[5-({[2-(methylsulfonyl)ethyl]amino}methyl)-2-furyl]-4-quinazolinamine]", "values": [{"measurement": "TGFa", "setting": "TGFα", "result": 22, "unit": "OD"}, {"measurement": "time by which steady state plasma concentrations were achieved", "setting": "[1]", "result": "≤ 21", "unit": "days"}, {"measurement": "erbB2 p-tyr", "setting": "erbB2 [2]", "result": "had not decreased"}, {"measurement": "total Erk1/2 steady state protein levels", "setting": "Erk1/2 [3]; 100 mg/kg", "result": "without effects"}, {"measurement": "p-Erk1/2", "setting": "Erk1/2 [3]; 100 mg/kg oral twice daily, five doses", "result": "inhibited; also recorded: decreased"}, {"measurement": "p-erk in the nuclei vs cells treated with epigen alone", "setting": "pAKT [4]", "result": "comparatively less"}, {"measurement": "baseline levels of p-Tyr/erbB2", "setting": "erbB2 [5]", "result": "inhibited"}, {"measurement": "reduction of cyclin D1 protein expression", "setting": "cyclin D1; patient 361, 1200 mg/day, d 21", "result": 90, "unit": "%"}, {"measurement": "cyclin D1 OD", "setting": "cyclin D1; patient 361, breast, 1200 mg/d, day 21 (day 0: 31)", "result": 3, "unit": "OD"}, {"measurement": "cyclin D1 OD", "setting": "cyclin D1; patient 362, adenocarcinoma unknown primary, 900 mg/d, day 21 (day 0: 26)", "result": 37, "unit": "OD"}, {"measurement": "cyclin D1 OD", "setting": "cyclin D1; patient 363, sarcoma, 500 mg/d, day 21 (day 0: 1)", "result": 12, "unit": "OD"}, {"measurement": "reduction of cyclin D1 expression", "setting": "cyclin D1; patient 364, 1600 mg/day, 21 days of therapy", "result": 50, "unit": "%"}, {"measurement": "cyclin D1 OD", "setting": "cyclin D1; patient 364, head & neck, 1600 mg/d, day 21 (day 0: 66)", "result": 33, "unit": "OD"}, {"measurement": "cyclin D1 OD", "setting": "cyclin D1; patient 367, adenocarcinoma unknown primary, 650 mg/d, day 21 (day 0: 46)", "result": 39, "unit": "OD"}, {"measurement": "cyclin D1 OD", "setting": "cyclin D1; patient 369, head & neck, 1200 mg/d, day 21 (day 0: 39)", "result": 22, "unit": "OD"}, {"measurement": "cyclin D1 OD", "setting": "cyclin D1; patient 371, breast, 900 mg/d, day 21 (day 0: 42)", "result": 10, "unit": "OD"}, {"measurement": "cyclin D1 OD", "setting": "cyclin D1; patient 372, breast, 1200 mg/d, day 21 (day 0: 20)", "result": 4, "unit": "OD"}, {"measurement": "Cyclin D1", "setting": "cyclin D1; patient 425, inflammatory breast cancer, 1200 mg/d ditosylate salt, day 21 (day 0: 19)", "result": 12, "unit": "OD"}, {"measurement": "apoptosis", "setting": "HN5 cells", "result": "significant apoptosis was not seen"}, {"measurement": "cell growth", "setting": "HN5 cells", "result": "growth arrest"}, {"measurement": "p-Erk1/2 levels", "setting": "Erk1/2 [6]", "result": "reduced"}, {"measurement": "total Erk1/2 protein", "setting": "Erk1/2 [6]", "result": "unaffected"}, {"measurement": "baseline amount of p-Erk", "setting": "Erk1/2 [7]", "result": "reduced; also recorded: decreased"}, {"measurement": "Heregulin", "setting": "Heregulin", "result": 8, "unit": "OD"}, {"measurement": "p-AKT OD", "setting": "pAKT [8]; patient 361, breast, 1200 mg/d, day 21 (day 0: 36)", "result": 24, "unit": "OD"}, {"measurement": "p-AKT OD", "setting": "pAKT [8]; patient 362, adenocarcinoma unknown primary, 900 mg/d, day 21 (day 0: 61)", "result": 81, "unit": "OD"}, {"measurement": "p-AKT OD", "setting": "pAKT [8]; patient 363, sarcoma, 500 mg/d, day 21 (day 0: 19)", "result": 32, "unit": "OD"}, {"measurement": "reduction of p-AKT", "setting": "pAKT [8]; patient 364, 1600 mg/day, Day 21", "result": 16, "unit": "%"}, {"measurement": "p-AKT OD", "setting": "pAKT [8]; patient 364, head & neck, 1600 mg/d, day 21 (day 0: 51)", "result": 43, "unit": "OD"}, {"measurement": "p-AKT OD", "setting": "pAKT [8]; patient 366, ovarian, 900 mg/d, day 21 (day 0: 22), aberrant staining, not considered valid", "result": 47, "unit": "OD"}, {"measurement": "p-AKT OD", "setting": "pAKT [8]; patient 367, adenocarcinoma unknown primary, 650 mg/d, day 21 (day 0: 35)", "result": 25, "unit": "OD"}, {"measurement": "p-AKT OD", "setting": "pAKT [8]; patient 369, head & neck, 1200 mg/d, day 21 (day 0: 24)", "result": 7, "unit": "OD"}, {"measurement": "p-AKT OD", "setting": "pAKT [8]; patient 371, breast, 900 mg/d, day 21 (day 0: 36)", "result": 33, "unit": "OD"}, {"measurement": "p-AKT OD", "setting": "pAKT [8]; patient 372, breast, 1200 mg/d, day 21 (day 0: 48)", "result": 30, "unit": "OD"}, {"measurement": "pAKT", "setting": "pAKT [8]; patient 425, inflammatory breast cancer, 1200 mg/d ditosylate salt, day 21 (day 0: 85)", "result": 26, "unit": "OD"}, {"measurement": "intensity of pAkt staining, particularly in the nuclei", "setting": "pAKT [8]; patient 425, post-treatment tumor sample, IHC, results not shown", "result": "greatly reduced"}, {"measurement": "baseline amount of p-Tyr/erbB2", "setting": "erbB2 [9]", "result": "reduced; also recorded: decreased"}, {"measurement": "total erbB2 protein", "setting": "erbB2 [10]; patient 361, 1200 mg/day", "result": "no effect"}, {"measurement": "ErbB2", "setting": "erbB2 [10]; patient 425, inflammatory breast cancer, 1200 mg/d ditosylate salt, day 21 (day 0: 62)", "result": 68, "unit": "OD"}, {"measurement": "decrease in p-Erk1/2", "setting": "p-Erk1/2", "result": "> 90", "unit": "%"}]}]}
